According to patent publication US6040335A, “Therapeutics for thrombocytopenia” (Suntory Limited, priority 1995, dated 2000):

Legend:
Mouse Platelet = Mouse Platelet Increasing Action (platelet count, electrical impedance method); type: in vivo, C57BL/6 mice; conditions: every 24 hr
Procedure: The measurement of platelet increasing activity can be implemented by the method described in Ishibashi, T. et al, Blood, 74(4):1241-1244, 1989 or modifications thereof. For example, an animal for platelet measurement such as mouse (e.g. C57BL/6 mouse), rat, dog or monkey is administered intraperitoneally with a test drug as dissolved in ethanolic physiological saline or dimethyl sulfoxide (hereunder sometimes referred to as DMSO) at a suitable concentration. The frequency of administration is usually once or twice a day for 5-10 continuous days; a blood sample is taken from the orbital venous plexus several hours after the final administration and the platelet count is determined. Administration may be performed by any methods including oral, intravenous, intramuscular and subcutaneous routes. The interval of administrations, their frequency and the number of days on which the administration is made are also variable with the drug under test. Platelet count can be determined by an electrical impedance method using a multi-channel automatic platelet counter (e.g., COULTER COUNTER Model JT of Coulter Corporation).
C57BL/6 mice (male, 7-week old) were administered intraperitoneally with the following compounds of the invention in 1% DMSO physiological saline or with 1% DMSO physiological saline alone (control) at 24-hr intervals for 5, 7 or 10 continuous days. Blood samples were collected 72-hr after the final administration in the case of 5-day administration, and 4-hr after the final administration in the case of 7 or 10-day administration, and the platelet count was determined by an electrical impedance method.

C57BL/6 mice = experiment: Toxicity Test (intravenous, deaths); type: in vivo; conditions: 5 mg/kg intravenous
[1] = 0.03 mg/kg i.p., 5 days, blood 72 hr after final administration
[2] = 0.1 mg/kg i.p., 5 days, blood 72 hr after final administration
[3] = 1.0 mg/kg i.p., 5 days, blood 72 hr after final administration

SMILES	Platelet count (Mean ± S.E.) (Mouse Platelet; 0.03 mg/kg i.p., 7 days, blood 4 hr after final administration, control 1070 ± 152)	Platelet count (Mean ± S.E.) (Mouse Platelet; 0.1 mg/kg i.p., 7 days, blood 4 hr after final administration, control 1070 ± 152)	Platelet count (Mean ± S.E.) (Mouse Platelet; 0.1 mg/kg i.p., 10 days, blood 4 hr after final administration, control 985 ± 130)	Platelet count (Mean ± S.E.) (Mouse Platelet; 1.0 mg/kg i.p., 7 days, blood 4 hr after final administration, control 1070 ± 152)	Platelet count (Mean ± S.E.) (Mouse Platelet; 1.0 mg/kg i.p., 10 days, blood 4 hr after final administration, control 985 ± 130)	cases of death (C57BL/6 mice)	Platelet count (Mean ± S.E.) (Mouse Platelet; [1])	Platelet count (Mean ± S.E.) (Mouse Platelet; [2])	Platelet count (Mean ± S.E.) (Mouse Platelet; [3])
CCC1C=CC(=O)OC1/C=C/C(O)(CCN(C)C)C(CC(O)/C=C\C=C/C1CCCC(O)C1)OP(=O)(O)O (centres unmarked) [Example 3, 6-[3,6-Dihydroxy-3-(2-dimethylaminoethyl)-10-(3-hydroxycyclohexyl)-4-(phosphonoxy)-1,7,9-decatrienyl]-5,6-dihydro-5-ethyl-2H-pyran-2-one]	1417 ± 159 × 10^3 /μl	1486 ± 314 × 10^3 /μl	1280 ± 260 × 10^3 /μl	1532 ± 137 × 10^3 /μl	1356 ± 156 × 10^3 /μl	no cases of death	–	–	–
CCC1C=CC(=O)OC1/C=C/C(O)(CCN(CC)CC)C(CC(O)/C=C\C=C/C1CCCC(O)C1)OP(=O)(O)O (centres unmarked) [Example 7, 6-[3-(2-Diethylaminoethyl)-3,6-dihydroxy-10-(3-hydroxycyclohexyl)-4-(phosphonoxy)-1,7,9-decatrienyl]-5,6-dihydro-5-ethyl-2H-pyran-2-one]	–	–	–	–	–	–	1373 ± 76 × 10^3 /μl	1686 ± 226 × 10^3 /μl	1408 ± 427 × 10^3 /μl
CCC1C=CC(=O)OC1/C=C/C(O)(CCNC(C)C)C(CC(O)/C=C\C=C/C1CCCC(O)C1)OP(=O)(O)O (centres unmarked) [Example 9, 6-[3,6-Dihydroxy-10-(3-hydroxycyclohexyl)-3-(2-isopropylaminoethyl)-4-(phosphonoxy)-1,7,9-decatrienyl]-5,6-dihydro-5-ethyl-2H-pyran-2-one]	–	–	–	–	–	–	1433 ± 125 × 10^3 /μl	1818 ± 291 × 10^3 /μl	1465 ± 244 × 10^3 /μl
CCCCCNCCC(O)(/C=C/C1OC(=O)C=CC1CC)C(CC(O)/C=C\C=C/C1CCCC(O)C1)OP(=O)(O)O (centres unmarked) [Example 12, 6-[3,6-Dihydroxy-10-(3-hydroxycyclohexyl)-3-(2-pentylaminoethyl)-4-(phosphonoxy)-1,7,9-decatrienyl]-5,6-dihydro-5-ethyl-2H-pyran-2-one]	–	–	–	–	–	–	1263 ± 99 × 10^3 /μl	1623 ± 192 × 10^3 /μl	1338 ± 236 × 10^3 /μl
CCC1C=CC(=O)OC1/C=C/C(O)(CCNC1CCCC1)C(CC(O)/C=C\C=C/C1CCCC(O)C1)OP(=O)(O)O (centres unmarked) [Example 13, 6-[3-(2-Cyclopentylaminoethyl)-3,6-dihydroxy-10-(3-hydroxycyclohexyl)-4-(phosphonoxy)-1,7,9-decatrienyl]-5,6-dihydro-5-ethyl-2H-pyran-2-one]	–	–	–	–	–	–	1490 ± 108 × 10^3 /μl	1765 ± 291 × 10^3 /μl	1313 ± 293 × 10^3 /μl
CCC1C=CC(=O)OC1/C=C/C(O)(CCN(CCO)CCO)C(CC(O)/C=C\C=C/C1CCCC(O)C1)OP(=O)(O)O (centres unmarked) [Example 20, 6-[3-(2-Diethanolaminoethyl)-3,6-dihydroxy-10-(3-hydroxycyclohexyl)-4-(phosphonoxy)-1,7,9-decatrienyl]-5,6-dihydro-5-ethyl-2H-pyran-2-one]	–	–	–	–	–	–	1154 ± 138 × 10^3 /μl	1325 ± 104 × 10^3 /μl	1498 ± 192 × 10^3 /μl
CCC1C=CC(=O)OC1/C=C/C(O)(CC[N+](C)(C)C)C(CC(O)/C=C\C=C/C1CCCC(O)C1)OP(=O)(O)O (centres unmarked) [Example 23, 6-[3,6-Dihydroxy-10-(3-hydroxycyclohexyl)-4-(phosphonoxy)-3-(2-trimethylammoniumethyl)-1,7,9-decatrienyl]-5,6-dihydro-5-ethyl-2H-pyran-2-one]	–	–	–	–	–	–	–	1545 ± 294 × 10^3 /μl	1513 ± 425 × 10^3 /μl
C=CCN(CC=C)CCC(O)(/C=C/C1OC(=O)C=CC1CC)C(CC(O)/C=C\C=C/C1CCCC(O)C1)OP(=O)(O)O (centres unmarked) [Example 25, 6-[3-(2-Diallylaminoethyl)-3,6-dihydroxy-10-(3-hydroxycyclohexyl)-4-(phosphonoxy)-1,7,9-decatrienyl]-5,6-dihydro-5-ethyl-2H-pyran-2-one]	–	–	–	–	–	–	1074 ± 182 × 10^3 /μl	1506 ± 209 × 10^3 /μl	1133 ± 170 × 10^3 /μl
